The record followed here is patent publication US10604554B2, “Double-acylated GLP-1 derivatives” (Novo Nordisk A/S, priority 2012, dated 2020).

Data set [1] has as its target T1, human GLP-1 receptor (Homo sapiens, UniProt P43220).
T1 construct: expressed in transfected cells; host or cells: BHK cells, clone FCW467-12A/KZ10-1 (parent line BHKTS13), further transfected with CRE luciferase
In words: In vitro potency (CRE luciferase; whole cells). In kind it is cell-based. Also noted: EC50/pM (ratio 1% HSA/0% HSA): unit not given here. As to conditions: for EC50: BHK cells; for EC50/pM (ratio 1% HSA/0% HSA): ratio of EC50 at 1% HSA to EC50 at 0% HSA. An outline of the steps: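 Stably transfected BHK cells carrying human GLP-1R and a CRE–firefly luciferase reporter, 5×10^3 cells/well in assay medium, run with 0% or 1% HSA in assay buffer.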

The nature of data set [2]: Pharmacokinetic (PK) study in rat. To be noted: male, Sprague Dawley, in vivo, iv, 6 nmol/kg.
In data set [3] the target is T1, human GLP-1 receptor. Kind of data set: GLP-1 receptor binding (SPA, displacement of 125I-GLP-1). An outline of the steps: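 Membranes from a stably transfected hamster cell line, 5-10 ug protein/sample, with WGA SPA beads and [125I]-GLP-1(7-36)NH2 at 0.06 nM final. Incubated 120 min at 30 °C with shaking, then counted.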
(In general: Loss of bound radioactivity is the signal in a displacement assay; it reports binding, not function.)

The nature of data set [4]: Pharmacokinetic (PK) study in minipig. As to conditions: male, Göttingen, in vivo, iv.
Data set [5] concerns Landrace Yorkshire Duroc (LYD) pigs. Kind of data set: Pharmacodynamic (PD) study in pigs, food intake. To be noted: single s.c. dose 3.0 nmol/kg. In kind it is in vivo, pig. How it is done:
The purpose of this experiment was to investigate the effect of a couple of Example compounds on food intake in pigs. This was done in a pharmacodynamic (PD) study as described below, in which food intake was measured from 1 to 4 days after administration of a single dose of the GLP-1 derivative, as compared to a vehicle-treated control group.
Female Landrace Yorkshire Duroc (LYD) pigs, approximately 3 months of age, weighing approximately 30-35 kg were used (n=3-4 per group). The animals were housed in a group for approximately 1 week during acclimatisation to the animal facilities. During the experimental period the animals were placed in individual pens at least 2 days before dosing and during the entire experiment for measurement of individual food intake. The animals were fed ad libitum with pig fodder (Svinefoder Danish Top) at all times both during the acclimatisation and the experimental period. Food intake was monitored on line by logging the weight of fodder every 15 minutes. The system used was Mpigwin (Ellegaard Systems, Faaborg, Denmark).
The phosphate buffer serves as vehicle. Animals are dosed with a single subcutaneous dose of the GLP-1 derivative or vehicle (dose volume 0.025 ml/kg) on the morning of day 1, and food intake is measured for 1 day after dosing. On the last day of each study, 1-4 days after dosing, a blood sample for measurement of plasma exposure of the GLP-1 derivative is taken from the heart in anaesthetised animals. The animals are thereafter euthanised with an intra-cardial overdose of pentobarbitone.
Food intake is calculated as mean±SEM food intake in 24 h intervals (0-24 h, 24-48 h, and 48-72 h). In Table 6 below the food intake is indicated as percentage of the food intake of the vehicle group in the same time interval (dosage 3.0 nmol/kg).
Statistical comparisons of the food intake in the 24 h intervals in the vehicle vs. GLP-1 derivative group are done using two-way-ANOVA repeated measures, followed by Bonferroni post-test.

Setting [6] is: In vitro potency (CRE luciferase) EC50 (0% HSA), 0% HSA.
Setting [7] is: In vitro potency (CRE luciferase) EC50 (1% HSA), 1% HSA.
Where [8] appears, read: Receptor binding affinity IC50 (high HSA), 2.0% HSA (high albumin).
[9] abbreviates: Receptor binding affinity IC50 (low HSA), 0.001% HSA (low albumin).

T1 sequence (P43220 24-463): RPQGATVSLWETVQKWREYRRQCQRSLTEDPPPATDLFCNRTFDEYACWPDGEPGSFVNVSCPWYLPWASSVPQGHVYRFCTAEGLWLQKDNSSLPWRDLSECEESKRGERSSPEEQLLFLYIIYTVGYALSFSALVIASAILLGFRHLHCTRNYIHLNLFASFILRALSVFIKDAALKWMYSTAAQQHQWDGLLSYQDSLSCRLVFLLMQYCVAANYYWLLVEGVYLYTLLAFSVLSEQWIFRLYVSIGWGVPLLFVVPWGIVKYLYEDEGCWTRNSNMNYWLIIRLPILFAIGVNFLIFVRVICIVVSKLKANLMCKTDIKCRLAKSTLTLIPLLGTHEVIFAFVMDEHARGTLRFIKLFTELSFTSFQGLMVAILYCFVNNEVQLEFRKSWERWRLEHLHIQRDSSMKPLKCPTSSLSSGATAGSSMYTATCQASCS

The EC50 is the concentration giving half of the maximal effect. By half-life is commonly meant the time in which the quantity being followed falls by half. Broadly, the IC50 is the midpoint of a concentration-inhibition curve. As to `CC[C@H](C)[C@H](NC(=O)[C@H](Cc1ccccc1)NC(=O)[C@H](CCC(=O)O)NC(=O)[C@H](CCCCNC(=O)[C@H](CCCCNC(=O)[C@H](CCCCNC(=O)CC[C@H](NC(=O)CCCCCCCCCCOc1ccc(C(=O)O)cc1)C(=O)O)N(C)C)N(C)C)NC(=O)[C@H](C)NC(=O)[C@H](C)NC(=O)[C@H](CCC(N)=O)NC(=O)CNC(=O)[C@H](CCC(=O)O)NC(=O)[C@H](CC(C)C)NC(=O)[C@H](Cc1ccc(O)cc1)NC(=O)[C@H](CO)NC(=O)[C@H](CO)NC(=O)[C@@H](NC(=O)[C@H](CC(=O)O)NC(=O)[C@H](CO)NC(=O)[C@@H](NC(=O)[C@H](Cc1ccccc1)NC(=O)[C@@H](NC(=O)CNC(=O)[C@H](CCC(=O)O)NC(=O)C(C)(C)NC(=O)CCc1c[nH]cn1)[C@@H](C)O)[C@@H](C)O)C(C)C)C(=O)N[C@@H](C)C(=O)N[C@@H](Cc1c[nH]c2ccccc12)C(=O)N[C@@H](CC(C)C)C(=O)N[C@H](C(=O)N[C@@H](CCCNC(=N)N)C(=O)NCC(=O)N[C@@H](CCCNC(=N)N)C(=O)N[C@@H](CCCCNC(=O)[C@H](CCCCNC(=O)[C@H](CCCCNC(=O)CC[C@H](NC(=O)CCCCCCCCCCOc1ccc(C(=O)O)cc1)C(=O)O)N(C)C)N(C)C)C(=O)O)C(C)C` [Example 29, N^ε26-[(2S)-6-[[(2S)-6-[[(4S)-4-carboxy-4-[11-(4-carboxyphenoxy)undecanoylamino]butanoyl]amino]-2-(dimethylamino)hexanoyl]amino]-2-(dimethylamino)hexanoyl], N^ε37-[(2S)-6-[[(2S)-6-[[(4S)-4-carboxy-4-[11-(4-carboxyphenoxy)undecanoylamino]butanoyl]amino]-2-(dimethylamino)hexanoyl]amino]-2-(dimethylamino)hexanoyl]-[Imp^7,Aib^8,Arg^34,Lys^37]-GLP-1-(7-37)-peptide], the half-maximal effective concentration (EC50) was 0.0079 nM in data set [1] (setting [6]) and 0.427 nM in data set [1] (setting [7]). Moreover, the half-life was 19 h in data set [2] and 82 h in data set [4]. Further, the IC50 was determined as 56 nM in data set [3] (setting [8]) and 0.55 nM in data set [3] (setting [9]).
On to `CC[C@H](C)[C@H](NC(=O)[C@H](Cc1ccccc1)NC(=O)[C@H](CCC(=O)O)NC(=O)[C@H](CCCCNC(=O)[C@@H](N)CCCCNC(=O)COCCOCCNC(=O)COCCOCCNC(=O)CC[C@H](NC(=O)CCCCCCCCCCOc1ccc(C(=O)O)cc1)C(=O)O)NC(=O)[C@H](C)NC(=O)[C@H](C)NC(=O)[C@H](CCC(N)=O)NC(=O)[C@H](CCC(=O)O)NC(=O)[C@H](CCC(=O)O)NC(=O)[C@H](CC(C)C)NC(=O)[C@H](Cc1ccc(O)cc1)NC(=O)[C@H](CO)NC(=O)[C@H](CO)NC(=O)[C@@H](NC(=O)[C@H](CC(=O)O)NC(=O)[C@H](CO)NC(=O)[C@@H](NC(=O)[C@H](Cc1ccccc1)NC(=O)[C@@H](NC(=O)CNC(=O)[C@H](CCC(=O)O)NC(=O)C(C)(C)NC(=O)[C@@H](N)Cc1c[nH]cn1)[C@@H](C)O)[C@@H](C)O)C(C)C)C(=O)N[C@@H](C)C(=O)N[C@@H](Cc1c[nH]c2ccccc12)C(=O)N[C@@H](CC(C)C)C(=O)N[C@H](C(=O)N[C@@H](CCCNC(=N)N)C(=O)NCC(=O)N[C@@H](CCCNC(=N)N)C(=O)N[C@@H](CCCCNC(=O)[C@@H](N)CCCCNC(=O)COCCOCCNC(=O)COCCOCCNC(=O)CC[C@H](NC(=O)CCCCCCCCCCOc1ccc(C(=O)O)cc1)C(=O)O)C(=O)O)C(C)C` [Example 22], for which, in data set [1] (setting [6]), the EC50 worked out at 0.0055 nM. In addition, the “EC50/pM (ratio 1% HSA/0% HSA)” value in data set [1] turned out to be 13. For the same molecule, the half-life in data set [2] is 15 h; in data set [4], 59 h. The molecule further yielded an IC50 in data set [3] (setting [9]) of 0.26 nM.
Turning to `CC[C@H](C)[C@H](NC(=O)[C@H](Cc1ccccc1)NC(=O)[C@H](CCC(=O)O)NC(=O)[C@H](CCCCNC(=O)[C@@H](N)CCCCNC(=O)[C@@H](N)CCCCNC(=O)CC[C@H](NC(=O)CCCCCCCCCCCOc1ccc(C(=O)O)cc1)C(=O)O)NC(=O)[C@H](C)NC(=O)[C@H](C)NC(=O)[C@H](CCC(N)=O)NC(=O)CNC(=O)[C@H](CCC(=O)O)NC(=O)[C@H](CC(C)C)NC(=O)[C@H](Cc1ccc(O)cc1)NC(=O)[C@H](CO)NC(=O)[C@H](CO)NC(=O)[C@@H](NC(=O)[C@H](CC(=O)O)NC(=O)[C@H](CO)NC(=O)[C@@H](NC(=O)[C@H](Cc1ccccc1)NC(=O)[C@@H](NC(=O)CNC(=O)[C@H](CCC(=O)O)NC(=O)C(C)(C)NC(=O)[C@@H](N)Cc1c[nH]cn1)[C@@H](C)O)[C@@H](C)O)C(C)C)C(=O)N[C@@H](C)C(=O)N[C@@H](Cc1c[nH]c2ccccc12)C(=O)N[C@@H](CC(C)C)C(=O)N[C@H](C(=O)N[C@@H](CCC(N)=O)C(=O)NCC(=O)N[C@@H](CCCNC(=N)N)C(=O)N[C@@H](CCCCNC(=O)[C@@H](N)CCCCNC(=O)[C@@H](N)CCCCNC(=O)CC[C@H](NC(=O)CCCCCCCCCCCOc1ccc(C(=O)O)cc1)C(=O)O)C(=O)O)C(C)C` [Example 9, N^ε26-[(2S)-2-amino-6-[[(2S)-2-amino-6-[[(4S)-4-carboxy-4-[12-(4-carboxyphenoxy)dodecanoylamino]butanoyl]amino]hexanoyl]amino]hexanoyl], N^ε37-[(2S)-2-amino-6-[[(2S)-2-amino-6-[[(4S)-4-carboxy-4-[12-(4-carboxyphenoxy)dodecanoylamino]butanoyl]amino]hexanoyl]amino]hexanoyl]-[Aib^8,Gln^34,Lys^37]-GLP-1-(7-37)-peptide], in data set [1], the “EC50/pM (ratio 1% HSA/0% HSA)” value was 72. In addition, the half-life in data set [2] is 20 h; in data set [4], 72 h.
Regarding `CC[C@H](C)[C@H](NC(=O)[C@H](Cc1ccccc1)NC(=O)[C@H](CCC(=O)O)NC(=O)[C@H](CCCCNC(=O)[C@@H](N)CCCCNC(=O)[C@H](CO)NC(=O)CNC(=O)[C@H](CO)NC(=O)CC[C@H](NC(=O)CCCCCCCCCCCOc1ccc(C(=O)O)cc1)C(=O)O)NC(=O)[C@H](C)NC(=O)[C@H](C)NC(=O)[C@H](CCC(N)=O)NC(=O)CNC(=O)[C@H](CCC(=O)O)NC(=O)[C@H](CC(C)C)NC(=O)[C@H](Cc1ccc(O)cc1)NC(=O)[C@H](CO)NC(=O)[C@H](CO)NC(=O)[C@@H](NC(=O)[C@H](CC(=O)O)NC(=O)[C@H](CO)NC(=O)[C@@H](NC(=O)[C@H](Cc1ccccc1)NC(=O)[C@@H](NC(=O)CNC(=O)[C@H](CCC(=O)O)NC(=O)C(C)(C)NC(=O)[C@@H](N)Cc1c[nH]cn1)[C@@H](C)O)[C@@H](C)O)C(C)C)C(=O)N[C@@H](C)C(=O)N[C@@H](Cc1c[nH]c2ccccc12)C(=O)N[C@@H](CC(C)C)C(=O)N[C@H](C(=O)N[C@@H](CCCNC(=N)N)C(=O)NCC(=O)N[C@@H](CCCNC(=N)N)C(=O)N[C@@H](CCCCNC(=O)[C@@H](N)CCCCNC(=O)[C@H](CO)NC(=O)CNC(=O)[C@H](CO)NC(=O)CC[C@H](NC(=O)CCCCCCCCCCCOc1ccc(C(=O)O)cc1)C(=O)O)C(=O)O)C(C)C` [Example 24], the EC50 in data set [1] (setting [7]) amounted to 0.126 nM. In addition, the “EC50/pM (ratio 1% HSA/0% HSA)” value in data set [1] was 37. In data set [5] (0-24 h), the “PD in pig, food intake (% of vehicle) for hours 0-24” value is 73 % of vehicle. In addition, in data set [5] (24-48 h), the “PD in pig, food intake (% of vehicle) for hours 24-48” value is given as 73 % of vehicle. In addition, in data set [3] (setting [8]), the IC50 was determined as 136 nM. The molecule further showed a half-life in data set [4] of 123 h.
